# Assay results from patent US20260306639A1, “DEGRADER FOR DECOMPOSING CMET PROTEIN, AND PHARMACEUTICAL COMPOSITION COMPRISING SAME” (INNOCURE THERAPEUTICS, INC., priority 2022, published 2026).
# Tested on: c-MET
# Assay: c-MET protein degradation (Simple Western), MKN-45 cells
# Assay type: cell-based, human
# Conditions: MKN-45 gastric cancer cells, c-MET overexpressing; 24 hours
# Procedure: In order to assess the resolution of the compound of the present invention for c-MET expressed in cells, cells were dispensed in a 12-well plate at a concentration of 2×10^5 cells/well, and then gastric cancer cell lines were treated with samples for 24 hours and lung cancer cell lines were treated for 48 hours. Cell lysates were collected using a scraper on ice, centrifuged at 4° C. 15,000 rpm for 30 min to obtain a protein-containing supernatant. Protein expression was then measured using the Simple Western Automated Western Blot System Abby instrument using 3 μg of protein for each sample. SDS and heat-induced denaturation proteins were separated by molecular weight, attached to capillary, reacted with anti-c-MET or anti-GAPDH antibodies, which are primary antibodies, and then reacted with HRP-conjugated secondary antibodies, and analyzed the protein expression signal with compass software. Protein expression was normalized based on the expression value of GAPDH, and protein development in each sample was measured as a percentage (%) based on 100% of samples treated with 0.1% DMSO carriers, and DC50 (concentration of a compound where 50% protein inhibition is achieved) was calculated from the change in protein expression amount due to compound treatment.
row,DC50,Structure (SMILES)
1,< 100 nM,"Cc1nn(C2CCC(=O)NC2=O)c(=O)c2ccc(N3CCN(C(=O)CN4CCC(COc5cnc(-c6cccc(Cn7nc(-c8cccc(C#N)c8)ccc7=O)c6)nc5)CC4)CC3)cc12 (stereo not shown) [ICT-0001177, 3-(1-{[3-(5-{[1-(2-{4-[2-(2,6-dioxopiperidin-3-yl)-4-methyl-1-oxo-1,2-dihydropthalazine-6-yl]piperazine-1-yl}-2-oxoethyl)piperidine-4-yl]methoxy}pyrimidine-2-yl)phenyl]methyl}-6-oxo-1,6-dihydropyridazine-3-yl)benzonitrile]"
2,100 to 1000 nM,Cc1nn(C2CCC(=O)NC2=O)c(=O)c2ccc(N3CCN(C[C@H]4CCN(CC(=O)N5CCC(COc6cnc(-c7cccc(Cn8nc(-c9cccc(C#N)c9)ccc8=O)c7)nc6)CC5)CO4)CC3)cc12 (stereo partly shown) [ICT-0001254]
3,< 100 nM,Cc1nn(C2CCC(=O)NC2=O)c(=O)c2cc(N3CCN(CCCCC(=O)N4CCC(COc5cnc(-c6cccc(Cn7nc(-c8cccc(C#N)c8)ccc7=O)c6)nc5)CC4)CC3)ccc12 (stereo not shown) [ICT-0001217]
4,> 1000 nM,Cc1nn(C2CCC(=O)NC2=O)c(=O)c2cc(N3CCC(C(=O)NCCCNC(=O)CN4CCC(COc5cnc(-c6cccc(Cn7nc(-c8cccc(C#N)c8)ccc7=O)c6)nc5)CC4)CC3)ccc12 (stereo not shown) [ICT-0001238]
5,100 to 1000 nM,Cc1nn(C2CCC(=O)NC2=O)c(=O)c2ccc(N3CCN(C(=O)CCCCN4CCC(COc5cnc(-c6cccc(Cn7nc(-c8cccc(C#N)c8)ccc7=O)c6)nc5)CC4)CC3)cc12 (stereo not shown) [ICT-0001250]
6,> 1000 nM,Cc1nn(C2CCC(=O)NC2=O)c(=O)c2cc(N3CCC(CN4CCN(C(=O)CN5CCC(COc6cnc(-c7cccc(Cn8nc(-c9cccc(C#N)c9)ccc8=O)c7)nc6)CC5)CC4)CC3)ccc12 (stereo not shown) [ICT-0001234]
7,< 100 nM,Cc1nn(C2CCC(=O)NC2=O)c(=O)c2ccc(N3CCN(C[C@@H]4CN(C(=O)CN5CCC(COc6cnc(-c7cccc(Cn8nc(-c9cccc(C#N)c9)ccc8=O)c7)nc6)CC5)CCO4)CC3)cc12 (stereo partly shown) [ICT-0001258]
8,< 100 nM,"N#Cc1cccc(-c2ccc(=O)n(Cc3cccc(-c4ncc(OCC5CCN(C(=O)CCN6CCN(c7ccc8c(=O)n(C9CCC(=O)NC9=O)ncc8c7)CC6)CC5)cn4)c3)n2)c1 (stereo not shown) [ICT-0001199, 3-(1-{[3-(5-{[1-(3-{4-[2-(2,6-dioxopiperidin-3-yl)-1-oxo-1,2-dihydropthalazine-6-yl]piperazine-1-yl}propanoyl)piperidine-4-il]methoxy}pyrimidin-2-yl)phenyl]methyl}-6-oxo-1,6-dihydropyridazine-3-yl)benzonitrile]"
9,< 100 nM,Cc1nn(C2CCC(=O)NC2=O)c(=O)c2ccc(N3CCN(C(=O)CCN4CCC(COc5cnc(-c6cccc(Cn7nc(-c8cccc(C#N)c8)ccc7=O)c6)nc5)CC4)CC3)cc12 (stereo not shown) [ICT-0001224]
10,100 to 1000 nM,"N#Cc1cccc(-c2ccc(=O)n(Cc3cccc(-c4ncc(OCC5CCN(CCCC(=O)N6CCN(c7ccc8c(=O)n(C9CCC(=O)NC9=O)ncc8c7)CC6)CC5)cn4)c3)n2)c1 (stereo not shown) [ICT-0001226, 3-(1-(3-(5-((1-(4-(4-(2-(2,6-dioxopiperidine-3-yl)-1-oxo-1,2-dihydropetalazine-6-yl)piperazine-1-il)-4-oxobutyl)piperidine-4-il)methoxy)pyrimidine-2-yl)benzyl)-6-oxo-1,6-dihydropyridazine-3-yl)benzonitrile]"
11,< 100 nM,N#Cc1cccc(-c2ccc(=O)n(Cc3cccc(-c4ncc(OCC5CCN(CC(=O)N6CCN(c7ccc8c(=O)n(C9CCC(=O)NC9=O)ncc8c7)CC6)CC5)cn4)c3)n2)c1 (stereo not shown) [ICT-0001221]
12,100 to 1000 nM,"Cc1nn(C2CCC(=O)NC2=O)c(=O)c2ccc(N3CCN(c4ccc(NCC(=O)N5CCC(COc6cnc(-c7cccc(Cn8nc(-c9cccc(C#N)c9)ccc8=O)c7)nc6)CC5)cc4)CC3)cc12 (stereo not shown) [ICT-0001240, 3-(1-(3-(5-((1-((4-(4-(2-(2,6-dioxopiperidin-3-yl)-4-methyl-1-oxo-1,2-dihydropthalazine-6-yl)piperazine-1-yl)phenyl)glycyl)piperidine-4-il)methoxy)pyrimidine-2-yl)benzyl)6-oxo-1,6-dihydropyridazine-3-yl)benzonitrile]"
13,< 100 nM,Cc1nn(C2CCC(=O)NC2=O)c(=O)c2cc(N3CCN(C(=O)CCCCN4CCC(COc5cnc(-c6cccc(Cn7nc(-c8cccc(C#N)c8)ccc7=O)c6)nc5)CC4)CC3)ccc12 (stereo not shown) [ICT-0001251]
14,< 100 nM,Cc1nn(C2CCC(=O)NC2=O)c(=O)c2cc(N3CCN(CC4CCN(C(=O)CN5CCC(COc6cnc(-c7cccc(Cn8nc(-c9cccc(C#N)c9)ccc8=O)c7)nc6)CC5)CC4)CC3)ccc12 (stereo not shown) [ICT-0001195]
15,100 to 1000 nM,"Cc1nn(C2CCC(=O)NC2=O)c(=O)c2ccc(N3CCN(C(=O)CCCN4CCC(COc5cnc(-c6cccc(Cn7nc(-c8cccc(C#N)c8)ccc7=O)c6)nc5)CC4)CC3)cc12 (stereo not shown) [ICT-0001227, 3-(1-(3-(5-((1-(4-(4-(2-(2,6-dioxopiperidin-3-yl)-4-methyl-1-oxo-1,2-dihydropetalazine-6-yl)piperazine-1-yl)4-oxobutyl)piperidine-4-yl)methoxy)pyrimidine-2-yl)benzyl)6-oxo-1,6-dihydropyridazine-3-yl)benzonitrile]"
16,< 100 nM,Cc1nn(C2CCC(=O)NC2=O)c(=O)c2ccc(N3CCN(C4CCN(C(=O)CN5CCC(COc6cnc(-c7cccc(Cn8nc(-c9cccc(C#N)c9)ccc8=O)c7)nc6)CC5)CC4)CC3)cc12 (stereo not shown) [ICT-0001237]

# The remaining lines, values behind:
row,Structure (SMILES),DC50
1,Cc1nn(C2CCC(=O)NC2=O)c(=O)c2ccc(NCCCC(=O)N3CCC(COc4cnc(-c5cccc(Cn6nc(-c7cccc(C#N)c7)ccc6=O)c5)nc4)CC3)cc12 (stereo not shown) [ICT-0000989],100 to 1000 nM
2,"N#Cc1cccc(-c2ccc(=O)n(Cc3cccc(-c4ncc(OCC5CCN(C(=O)CCCCCNc6ccc7c(=O)n(C8CCC(=O)NC8=O)ncc7c6)CC5)cn4)c3)n2)c1 (stereo not shown) [ICT-0000984, 3-(1-{[3-(5-{[1-(6-{[2-(2,6-dioxopiperidin-3-yl)-1-oxo-1,2-dihydroptalazine-6-yl]amino}hexanoyl)piperidine-4-il]methoxy}pyrimidine-2-yl)phenyl]methyl}-6-oxo-1,6-dihydropyridazine-3-yl)benzonitrile]",100 to 1000 nM
3,Cc1nn(C2CCC(=O)NC2=O)c(=O)c2ccc(N3CCN(CCCCC(=O)N4CCC(COc5cnc(-c6cccc(Cn7nc(-c8cccc(C#N)c8)ccc7=O)c6)nc5)CC4)CC3)cc12 (stereo not shown) [ICT-0001176],< 100 nM
4,N#Cc1cccc(-c2ccc(=O)n(Cc3cccc(-c4ncc(OCC5CCN(C(=O)CCOCCOCCOCCOCCNc6cccc7cnn(C8CCC(=O)NC8=O)c(=O)c67)CC5)cn4)c3)n2)c1 (stereo not shown) [ICT-0000907],100 to 1000 nM
5,"Cc1nn(C2CCC(=O)NC2=O)c(=O)c2ccc(N3CCN(CCCC(=O)N4CCC(COc5cnc(-c6cccc(Cn7nc(-c8cccc(C#N)c8)ccc7=O)c6)nc5)CC4)CC3)cc12 (stereo not shown) [ICT-0001175, 3-(1-(3-(5-((1-(4-(4-(2-(2,6-dioxopiperidine-3-yl)-4-methyl-1-oxo-1,2-dihydropthalazine-6-yl)piperazine-1-yl)butanoyl)piperidine-4-il)methoxy)pyrimidine-2-yl)benzyl)6-oxo-1,6-dihydropyridazine-3-yl)benzonitrile]",< 100 nM
6,"Cn1cc(-c2cnc3c(nnn3C[C@@H]3CN(c4ncc(-c5ccc(CN6CCN(C(=O)CCCNc7ccc8c(=O)n(C9CCC(=O)NC9=O)ncc8c7)CC6)cc5)cn4)CCO3)n2)cn1 (stereo partly drawn) [ICT-0000922, 3-{6-[(4-{4-[(4-{2-[(2S)-2-{[5-(1-methyl-1H-pyrazole-4-yl)-1H-[1,2,3]triazolo[4,5-b]pyrazine-1-yl]methyl}morpholine-4-il]pyrimidine-5-yl}phenyl)methyl]piperazine-1-yl}-4-oxobutyl)amino]-1-oxo-1,2-dihydroptalazine-2-yl}piperidine-2,6-dione]",< 100 nM
7,Cn1cc(-c2cnc3c(nnn3C[C@@H]3CN(c4ncc(-c5ccc(CN6CCN(C(=O)CCOCCOCCNc7cccc8cnn(C9CCC(=O)NC9=O)c(=O)c78)CC6)cc5)cn4)CCO3)n2)cn1 (stereo partly shown) [ICT-0000940],100 to 1000 nM
8,"N#Cc1cccc(-c2ccc(=O)n(Cc3cccc(-c4ncc(OCC5CCN(C(=O)COCCOCCNc6ccc7c(=O)n(C8CCC(=O)NC8=O)ncc7c6)CC5)cn4)c3)n2)c1 (stereo not shown) [ICT-0000986, 3-{1-[(3-{5-[(1-{2-[2-(2-{[2-(2,6-dioxopiperidin-3-yl)-1-oxo-1,2-dihydropthalazine-6-yl]amino}ethoxy)ethoxy]acetyl}piperidine-4-il)methoxy]pyrimidine-2-yl}phenyl)methyl]-6-oxo-1,6-dihydropyridazine-3-yl}benzonitrile]",< 100 nM
9,Cc1nn(C2CCC(=O)NC2=O)c(=O)c2ccc(N3CCN(CCC(=O)N4CCC(COc5cnc(-c6cccc(Cn7nc(-c8cccc(C#N)c8)ccc7=O)c6)nc5)CC4)CC3)cc12 (stereo not shown) [ICT-0001174],< 100 nM
10,"Cn1cc(-c2cnc3c(nnn3C[C@@H]3CN(c4ncc(-c5ccc(CN6CCN(C(=O)CCCCNc7ccc8c(=O)n(C9CCC(=O)NC9=O)ncc8c7)CC6)cc5)cn4)CCO3)n2)cn1 (stereo partly drawn) [ICT-0000924, 3-(6-((5-(4-(4-(2-((S)-2-((5-(1-methyl-1H-pyrazole-4-yl)-1H-[1,2,3]triazolo[4,5-b]pyrazine-1-yl)methyl)morpholino)pyrimidine-5-yl)benzyl)piperazine-1-yl)5-oxopentyl)amino)1-oxopthalazine-2(1H)-yl)piperidine-2,6-dione]",< 100 nM
11,Cc1nn(C2CCC(=O)NC2=O)c(=O)c2ccc(NCCOCCOCCOCCOCCC(=O)N3CCC(COc4cnc(-c5cccc(Cn6nc(-c7cccc(C#N)c7)ccc6=O)c5)nc4)CC3)cc12 (stereo not shown) [ICT-0001091],< 100 nM
12,Cn1cc(-c2cnc3c(nnn3C[C@@H]3CN(c4ncc(-c5ccc(CN6CCN(C(=O)CN7CCN(c8ccc9c(=O)n(C%10CCC(=O)NC%10=O)ncc9c8)CC7)CC6)cc5)cn4)CCO3)n2)cn1 (stereo partly shown) [ICT-0001109],< 100 nM
